16 compounds from patent publication US12077531B2, “Imidazopyridinone compound” (KISSEI PHARMACEUTICAL CO., LTD., priority 2018, dated 2024) can be followed below.

One data set deals with human PHD2184-418 (Homo sapiens (Human), UniProt Q9GZT9). The experiment in a line: PHD2 inhibitory test (fluorescence polarization, binding between PHD2 and HIF-1α). As to conditions: for IC50: human PHD2184-418, FITC-labeled HIF-1α556-574, 2 μM 2-oxoglutarate, 37° C. 60 minutes. In outline: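 N-His-tagged human PHD2 (residues 184–418, E. coli-expressed) was preincubated with compound, then FITC-Ahx-HIF-1α556-574 peptide was added in pH 7.4 HEPES buffer with 10 μM MnCl2 and 2 μM 2-oxoglutarate. After 60 min at 37 °C, fluorescence polarization (ex 470/em 530 nm) was read. Inhibition was calculated against compound-free wells.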
A general note: Fluorescence polarisation rises when a labelled molecule tumbles more slowly, as on binding a larger partner.

The subject of data set [1] is TNBS induced colitis model rat. Description: Therapeutic effect in TNBS induced colitis model rat (intestinal permeability of FITC). The data set is classed as in vivo. Particulars: po, 72 h, 3 mg/kg orally once a day for 3 days, SD rats, mean, test compounds-free group 0, TNBS-untreated group 100, read-out: Inhibition (%): suppressive rate on the intestinal permeability. The protocol: Test Example 2 Therapeutic Effect in Colitis Model
(1) TNBS Induced Colitis Model Rat
SD rats: 8-weeks-old male SLC (Japan SLC) were used. Under pentobarbital anesthesia, 300 μL of TNBS (28 mg/mL) prepared by 50% ethanol was administered at a point 8 cm from anus in large intestine to cause inflammation. To the solvent-treated group was administrated 300 μL of 50% ethanol. Animals were fasted for 48 hours prior to administration of TNBS. Test compounds (3 mg/kg) prepared by 0.05% methylcellulose solution were orally administered once a day from next day, and it was administered for a total of 3 days. After administering for 3 days, 50 mg/kg FITC was orally administered at 4 hours after administration. Blood samples were collected from jugular vein under isoflurane anesthesia after 4 hours. The serum was centrifuged and fluorescence intensity was detected by PHERAstar FSX (BMG Labtech) to measure the concentration of FITC permeating into circulating blood through the mesentery. The suppressive rate on the intestinal permeability of test compounds was calculated based on the value of test compounds-free group as 0 and the value of TNBS-untreated group as 100.

Data set [2] is described as follows: Rat PK study: concentration of compounds in large intestine tissue and plasma. The data set is classed as in vivo. As to conditions: male, SD, 3 mg/kg oral; for Kp at 8 h: large intestine tissue / plasma, read-out: C/P: ratio of the above Colon and Plasma; for AUC / Cmax: non-fasted; for AUC: read-out: AUC: area under the plasma test compound concentration-time curve (converted); for Cmax: read-out: Cmax: maximum plasma concentration of test compounds in the case of oral administration. The protocol: Test Example 3 Concentration of Compounds in Large Intestine Tissue
Test compounds (3 mg/kg/5 mL) prepared by 0.05% methylcellulose were orally administered to non-fasted rats (SD, 8-weeks-old, male, Japan SLC). Blood samples were collected from jugular vein at 0.25, 0.5, 1, 2, 4, 6 and 8 hours after the administration. Laparotomy was performed under isoflurane anesthesia and large intestine was isolated. Collected distal large intestine (about 5 cm) was cut open, and then the large intestine was washed with saline on a dish. After washing, the large intestine was minced by a small scissors. About 150 mg thereof was moved to tube. To the tube was added 100 μL of saline, the mixture was homogenized using shake master (1000 rpm×30 minutes). Samples were prepared by the addition with quadruple volume of saline as final volume. The concentrations of the test compound in large intestine tissue and plasma were measured through a quantitative analysis using liquid chromatography-mass spectrometry (LC/MS).

Where [3] appears, read: large intestine tissue (distal large intestine), read-out: Colon: concentrations of the test compound in large intestine tissue after 8 hours.
[4] abbreviates: plasma, read-out: Plasma: plasma test compound concentration after 8 hours.

Where a name gives a salt, the structure may show the parent alone. Read-outs that look alike come from different tables or passages of the source. Some results are limits rather than exact numbers.

human PHD2184-418, sequence (Q9GZT9 184-418): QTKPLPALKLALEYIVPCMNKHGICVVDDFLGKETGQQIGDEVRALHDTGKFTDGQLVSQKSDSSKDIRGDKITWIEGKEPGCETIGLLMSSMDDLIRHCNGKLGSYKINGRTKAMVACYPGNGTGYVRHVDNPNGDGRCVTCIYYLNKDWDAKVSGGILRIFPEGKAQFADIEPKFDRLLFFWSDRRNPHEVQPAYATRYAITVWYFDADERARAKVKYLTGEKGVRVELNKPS

`Cn1ccnc1CN1CC[C@H](n2c(=O)n(-c3ccc(-c4ccc(C(=O)O)cc4)cc3)c3cccnc32)C1` [Example 47, (S)-4′-(3-(1-((1-Methyl-1H-imidazol-2-yl)methyl)pyrrolidin-3-yl)-2-oxo-2,3-dihydro-1H-imidazo[4,5-b]pyridin-1-yl)-[1,1′-biphenyl]-4-carboxylic acid]: on human PHD2184-418, the half-inhibitory concentration (IC50) – broadly, the concentration needed to halve the response being measured – worked out at 410 nM. For the same compound, the inhibition in vivo at 3 mg/kg in data set [1] turned out to be 85%. Besides, in data set [2] (setting [3]), the concentration at 8 h came to 317 ng/g. In addition, the Kp at 8 h in data set [2] was 18. Further, the concentration at 8 h in data set [2] (setting [4]) came out at 18 ng/mL. Moreover, in data set [2] (plasma), the AUC is 334 ng·h/mL and the Cmax worked out at 60 ng/mL.

For the compound `Cn1c(C(=O)O)cnc1CN1CC[C@H](n2c(=O)n(-c3ccc(-c4ccc(O)cc4)cc3)c3cccnc32)C1` [Example 82, (S)-2-((3-(1-(4′-Hydroxy-[1,1′-biphenyl]-4-yl)-2-oxo-1,2-dihydro-3H-imidazo[4,5-b]pyridin-3-yl)pyrrolidin-1-yl)methyl)-1-methyl-1H-imidazole-5-carboxylic acid], the concentration for half-maximal inhibition (IC50) on human PHD2184-418 turned out to be 130 nM. Besides, in data set [1], the inhibition in vivo at 3 mg/kg was found to be 96%.

`Cn1c(C(=O)O)cnc1CN1CC[C@H](n2c(=O)n(-c3ccc(-c4ccc(C(=O)O)cc4)nc3)c3cccnc32)C1` [Example 85, (S)-2-((3-(1-(6-(4-Carboxyphenyl)pyridin-3-yl)-2-oxo-1,2-dihydro-3H-imidazo[4,5-b]pyridin-3-yl)pyrrolidin-1-yl)methyl)-1-methyl-1H-imidazole-5-carboxylic acid]: the inhibition in vivo at 3 mg/kg in data set [1] was determined as 101%. Besides, the results for the concentration at 8 h in data set [2] (setting [3]) and in data set [2] (setting [4]) were 164 ng/g and below 1 ng/mL, respectively. In addition, the Kp at 8 h in data set [2] is above 164.

`O=C(O)c1ccc(-c2ccc(-n3c(=O)n([C@H]4CCN(Cc5cc(C(=O)O)ccn5)C4)c4ncccc43)cc2)cc1` [Example 43, (S)-2-((3-(1-(4′-Carboxy-[1,1′-biphenyl]-4-yl)-2-oxo-1,2-dihydro-3H-imidazo[4,5-b]pyridin-3-yl)pyrrolidin-1-yl)methyl)isonicotinic acid]: the IC50 on human PHD2184-418 turned out to be 200 nM. Further, the inhibition in vivo at 3 mg/kg in data set [1] came out at 59%. The concentration at 8 h came to 84 ng/g in data set [2] (setting [3]) and 2 ng/mL in data set [2] (setting [4]). Moreover, the Kp at 8 h in data set [2] came to 42. Moreover, the AUC in data set [2] (plasma) is 35.2 ng·h/mL. The Cmax in data set [2] (plasma) amounted to 8 ng/mL.

In turn, `Cn1c(C(=O)O)cnc1CN1CC[C@H](n2c(=O)n(-c3ccc(-c4ccc(C(=O)O)cc4)cc3O)c3cccnc32)C1` [Example 49, (S)-2-((3-(1-(4′-Carboxy-3-hydroxy-[1,1′-biphenyl]-4-yl)-2-oxo-1,2-dihydro-3H-imidazo[4,5-b]pyridin-3-yl)pyrrolidin-1-yl)methyl)-1-methyl-1H-imidazole-5-carboxylic acid] gave an IC50 on human PHD2184-418 of 120 nM. In data set [1], the inhibition in vivo at 3 mg/kg amounted to 82%. Also, in data set [2] (setting [3]), the concentration at 8 h came to 201 ng/g. In addition, in data set [2], the Kp at 8 h was above 201. The concentration at 8 h in data set [2] (setting [4]) is below 1 ng/mL. Also, in data set [2] (plasma), the AUC was 15 ng·h/mL and the Cmax came to 4 ng/mL.

On to `O=C(O)c1ccc(-c2ccc(-n3c(=O)n([C@H]4CCN(Cc5cc(C(=O)O)ccn5)C4)c4ncccc43)cc2O)cc1` [Example 45, (S)-2-((3-(1-(4′-Carboxy-2-hydroxy-[1,1′-biphenyl]-4-yl)-2-oxo-1,2-dihydro-3H-imidazo[4,5-b]pyridin-3-yl)pyrrolidin-1-yl)methyl)isonicotinic acid], for which the half-inhibitory concentration (IC50) at human PHD2184-418 came out at 270 nM. In addition, the inhibition in vivo at 3 mg/kg in data set [1] stood at 51%. Also, in data set [2] (setting [3]), the concentration at 8 h turned out to be 87 ng/g. Further, the Kp at 8 h in data set [2] is above 87. Also, in data set [2] (setting [4]), the concentration at 8 h is below 1 ng/mL. In data set [2] (plasma), the AUC is 6.68 ng·h/mL and the Cmax stood at 2 ng/mL.

With `Cn1ccnc1CN1CC[C@H](n2c(=O)n(-c3ccc(-c4ccc(C(=O)O)cc4)c(O)c3)c3cccnc32)C1` [Example 40, (S)-2′-Hydroxy-4′-(3-(1-((1-methyl-1H-imidazol-2-yl)methyl)pyrrolidin-3-yl)-2-oxo-2,3-dihydro-1H-imidazo[4,5-b]pyridin-1-yl)-[1,1′-biphenyl]-4-carboxylic acid], the concentration for half-maximal inhibition (IC50) on human PHD2184-418 was 760 nM. In addition, in data set [1], the inhibition in vivo at 3 mg/kg was 84%. For the same compound, the concentration at 8 h was 209 ng/g in data set [2] (setting [3]) and below 1 ng/mL in data set [2] (setting [4]). Also, the Kp at 8 h in data set [2] was above 209. Also, the Cmax in data set [2] (plasma) was below 1 ng/mL.

As to `Cc1cc(-c2ccccc2)ccc1-n1c(=O)n([C@H]2CCN(Cc3nccn3C)C2)c2ncccc21` [Example 28, (S)-3-(1-((1-Methyl-1H-imidazol-2-yl)methyl)pyrrolidin-3-yl)-1-(3-methyl-[1,1′-biphenyl]-4-yl)-1,3-dihydro-2H-imidazo[4,5-b]pyridin-2-one], the 50% inhibitory concentration (IC50) on human PHD2184-418 was found to be 28200 nM.

For the compound `O=C(O)c1ccnc(CN2CC[C@H](n3c(=O)n(-c4ccccc4)c4cccnc43)C2)c1` [Example 19, (S)-2-((3-(2-Oxo-1-phenyl-1,2-dihydro-3H-imidazo[4,5-b]pyridin-3-yl)pyrrolidin-1-yl)methyl)isonicotinic acid], the IC50 at human PHD2184-418 is 6340 nM.

On human PHD2184-418, `C=Cc1ccc(-n2c(=O)n([C@H]3CCN(Cc4ncc(C(=O)O)n4C)C3)c3ncccc32)cc1` [Example 69, (S)-1-Methyl-2-((3-(2-oxo-1-(4-vinylphenyl)-1,2-dihydro-3H-imidazo[4,5-b]pyridin-3-yl)pyrrolidin-1-yl)methyl)-1H-imidazole-5-carboxylic acid] displayed an IC50 of 500 nM.

At human PHD2184-418, `Cc1cnc2c(c1)n(-c1ccc(-c3ccc(C(=O)O)cc3)cc1)c(=O)n2[C@H]1CCN(Cc2ncc(C(=O)O)n2C)C1` [Example 27, (S)-2-((3-(1-(4′-Carboxy-[1,1′-biphenyl]-4-yl)-6-methyl-2-oxo-1,2-dihydro-3H-imidazo[4,5-b]pyridin-3-yl)pyrrolidin-1-yl)methyl)-1-methyl-1H-imidazole-5-carboxylic acid] registered an IC50 of 110 nM.

In turn, `COc1cnc2c(c1)n(-c1ccc(-c3ccc(C(=O)O)cc3)cc1)c(=O)n2[C@H]1CCN(Cc2ncc(C(=O)O)n2C)C1` [Example 24, (S)-2-((3-(1-(4′-Carboxy-[1,1′-biphenyl]-4-yl)-6-methoxy-2-oxo-1,2-dihydro-3H-imidazo[4,5-b]pyridin-3-yl)pyrrolidin-1-yl)methyl)-1-methyl-1H-imidazole-5-carboxylic acid] returned a half-inhibitory concentration (IC50) on human PHD2184-418 of 110 nM.

For `Cc1cccnc1CN1CC[C@H](n2c(=O)n(-c3ccc(C(=O)O)cc3)c3cccnc32)C1` [Example 21, (S)-4-(3-(1-((3-Methylpyridin-2-yl)methyl)pyrrolidin-3-yl)-2-oxo-2,3-dihydro-1H-imidazo[4,5-b]pyridin-1-yl)benzoic acid hydrochloride], the inhibition at 100 µM on human PHD2184-418 (read-out: inhibition rate at the compound concentration of 100 μM (numerals with *), compound concentration 100 μM) was determined as 39%.

The compound `Cn1ccnc1CN1CC[C@H](n2c(=O)n(-c3ccc(-c4ccc(C(=O)O)cc4)nc3)c3cccnc32)C1` [Example 41, (S)-4-(5-(3-(1-((1-Methyl-1H-imidazol-2-yl)methyl)pyrrolidin-3-yl)-2-oxo-2,3-dihydro-1H-imidazo[4,5-b]pyridin-1-yl)pyridin-2-yl)benzoic acid] registered an IC50 at human PHD2184-418 of 1460 nM. In addition, the inhibition in vivo at 3 mg/kg in data set [1] was determined as 74%.

In turn, `Cn1c(C(=O)O)cnc1CN1CC[C@H](n2c(=O)n(-c3ccc(Cl)cc3)c3cccnc32)C1` [Example 59, (S)-2-((3-(1-(4-Chlorophenyl)-2-oxo-1,2-dihydro-3H-imidazo[4,5-b]pyridin-3-yl)pyrrolidin-1-yl)methyl)-1-methyl-1H-imidazole-5-carboxylic acid] registered an IC50 at human PHD2184-418 of 180 nM.

Compound `COc1ccc(-n2c(=O)n([C@H]3CCN(Cc4cc(C(=O)O)ccn4)C3)c3ncccc32)cc1` [Example 18, (S)-2-((3-(1-(4-Methoxyphenyl)-2-oxo-1,2-dihydro-3H-imidazo[4,5-b]pyridin-3-yl)pyrrolidin-1-yl)methyl)isonicotinic acid] displayed an IC50 on human PHD2184-418 of 1950 nM.
